Data reported in US6344487B1, “Treatment of insomnia” (priority 2000, dated 2002).
Where a name gives a salt, the structure may show the parent alone.

Tests used:
Assay type in all cases: in vivo
Details in all cases: single patient
[1] = test system: insomnia, possibly due to a desynchronization of circadian rhythms ("jet-lag"); assay: Treatment of business traveler with insomnia possibly due to desynchronization of circadian rhythms (jet-lag), follow up
Procedure: (§1) Administration of the compounds should take place within about one hour before bedtime. Again, the onset of the sedative effect will vary with the individual and the dosage prescribed.
The patient, a business traveler, suffers from insomnia, possibly due to a desynchronization of circadian rhythms (“jet-lag”). At the time of consultation, they have normal affect with no depression, anxiety or substance overuse. They are prescribed mirtazapine 10 mg hs.
The patient, a business traveler, suffers from insomnia, possibly due to a desynchronization of circadian rhythms (“jet-lag”). At the time of consultation, they have normal affect with no depression, anxiety or substance overuse. They are prescribed mirtazapine 7.5 mg hs.
The patient, a business traveler, suffers from insomnia, possibly due to a desynchronization of circadian rhythms (“jet-lag”). At the time of consultation, they have normal affect with no depression, anxiety or substance overuse. They are prescribed mirtazapine 5 mg hs.
The patient, a business traveler, suffers from insomnia, possibly due to a desynchronization of circadian rhythms (“jet-lag”). At the time of consultation, they have normal affect with no depression, anxiety or substance overuse. They are prescribed mirtazapine 2 mg hs.
The patient, a business traveler, suffers from insomnia, possibly due to a desynchronization of circadian rhythms (“jet-lag”). At the time of consultation, they have normal affect with no depression, anxiety or substance overuse. They are prescribed nortriptyline 10 mg hs.
The patient, a business traveler, suffers from insomnia, possibly due to a desynchronization of circadian rhythms (“jet-lag”). At the time of consultation, they have normal affect with no depression, anxiety or substance overuse. They are prescribed nortriptyline 7.5 mg hs.
The patient, a business traveler, suffers from insomnia, possibly due to a desynchronization of circadian rhythms (“jet-lag”). At the time of consultation, they have normal affect with no depression, anxiety or substance overuse. They are prescribed nortriptyline 5 mg hs.
The patient, a business traveler, suffers from insomnia, possibly due to a desynchronization of circadian rhythms (“jet-lag”). At the time of consultation, they have normal affect with no depression, anxiety or substance overuse. They are prescribed nortriptyline 2 mg hs.

onset insomnia (chronic) = assay: Treatment of patient with onset insomnia (chronic), follow up
Procedure: as §1
The patient suffers from onset insomnia (chronic). At the time of consultation, they have normal affect with no depression, anxiety or substance overuse. They are prescribed mirtazapine 10 mg hs.
The patient suffers from onset insomnia (chronic). At the time of consultation, they have normal affect with no depression, anxiety or substance overuse. They are prescribed mirtazapine 7.5 mg hs.
The patient suffers from onset insomnia (chronic). At the time of consultation, they have normal affect with no depression, anxiety or substance overuse. They are prescribed mitazapine 5 mg hs.
The patient suffers from onset insomnia (chronic). At the time of consultation, they have normal affect with no depression, anxiety or substance overuse. They are prescribed mirtazapine 2 mg hs.
The patient suffers from onset insomnia (chronic). At the time of consultation, they have normal affect with no depression, anxiety or substance overuse. They are prescribed nortriptyline 10 mg hs.
The patient suffers from onset insomnia (chronic). At the time of consultation, they have normal affect with no depression, anxiety or substance overuse. They are prescribed nortriptyline 7.5 mg hs.
The patient suffers from onset insomnia (chronic). At the time of consultation, they have normal affect with no depression, anxiety or substance overuse. They are prescribed nortriptyline 5 mg hs.
The patient suffers from onset insomnia (chronic). At the time of consultation, they have normal affect with no depression, anxiety or substance overuse. They are prescribed nortriptyline 2 mg hs.

[2] = test system: maintenance insomnia (chronic); assay: Treatment of patient with maintenance insomnia (chronic), follow up
Procedure: as §1
The patient suffers from maintenance insomnia (chronic). At the time of consultation, they have normal affect with no depression, anxiety or substance overuse. They are prescribed mirtazapine 10 mg hs.
The patient suffers from maintenance insomnia (chronic). At the time of consultation, they have normal affect with no depression, anxiety or substance overuse. They are prescribed mirtazapine 7.5 mg hs.
The patient suffers from maintenance insomnia (chronic). At the time of consultation, they have normal affect with no depression, anxiety or substance overuse. They are prescribed mirtazapine 5 mg hs.
The patient suffers from maintenance insomnia (chronic). At the time of consultation, they have normal affect with no depression, anxiety or substance overuse. They are prescribed mirtazapine 2 mg hs.
The patient suffers from maintenance insomnia (chronic). At the time of consultation, they have normal affect with no depression, anxiety or substance overuse. They are prescribed nortriptyline 10 mg hs.
The patient suffers from maintenance insomnia (chronic). At the time of consultation, they have normal affect with no depression, anxiety or substance overuse. They are prescribed nortriptyline 7.5 mg hs.
The patient suffers from maintenance insomnia (chronic). At the time of consultation, they have normal affect with no depression, anxiety or substance overuse. They are prescribed nortriptyline 5 mg hs.
The patient suffers from maintenance insomnia (chronic). At the time of consultation, they have normal affect with no depression, anxiety or substance overuse. They are prescribed nortriptyline 2 mg hs.

[3] = test system: onset insomnia (non-chronic); assay: Treatment of patient with onset insomnia (non-chronic), follow up
Procedure: as §1
The patient suffers from onset insomnia (non-chronic). At the time of consultation, they have normal affect with no depression, anxiety or substance overuse. They are prescribed mirtazapine 10 mg hs.
The patient suffers from onset insomnia (non-chronic). At the time of consultation, they have normal affect with no depression, anxiety or substance overuse. They are prescribed mirtazapine 7.5 mg hs.
The patient suffers from onset insomnia (non-chronic). At the time of consultation, they have normal affect with no depression, anxiety or substance overuse. They are prescribed mitazapine 5 mg hs.
The patient suffers from onset insomnia (non-chronic). At the time of consultation, they have normal affect with no depression, anxiety or substance overuse. They are prescribed mirtazapine 2 mg hs.
The patient suffers from onset insomnia (non-chronic). At the time of consultation, they have normal affect with no depression, anxiety or substance overuse. They are prescribed nortriptyline 10 mg hs.
The patient suffers from onset insomnia (non-chronic). At the time of consultation, they have normal affect with no depression, anxiety or substance overuse. They are prescribed nortriptyline 7.5 mg hs.
The patient suffers from onset insomnia (non-chronic). At the time of consultation, they have normal affect with no depression, anxiety or substance overuse. They are prescribed nortriptyline 5 mg hs.
The patient suffers from onset insomnia (non-chronic). At the time of consultation, they have normal affect with no depression, anxiety or substance overuse. They are prescribed nortriptyline 2 mg hs.

[4] = test system: maintenance insomnia (non-chronic); assay: Treatment of patient with maintenance insomnia (non-chronic), follow up
Procedure: as §1
The patient suffers from maintenance insomnia (non-chronic) At the time of consultation, they have normal affect with no depression, anxiety or substance overuse. They are prescribed mirtazapine 10 mg hs.
The patient suffers from maintenance insomnia (non-chronic) At the time of consultation, they have normal affect with no depression, anxiety or substance overuse. They are prescribed mirtazapine 7.5 mg hs.
The patient suffers from maintenance insomnia (non-chronic) At the time of consultation, they have normal affect with no depression, anxiety or substance overuse. They are prescribed mirtazapine 5 mg hs.
The patient suffers from maintenance insomnia (non-chronic) At the time of consultation, they have normal affect with no depression, anxiety or substance overuse. They are prescribed mirtazapine 2 mg hs.
The patient suffers from maintenance insomnia (non-chronic). At the time of consultation, they have normal affect with no depression, anxiety or substance overuse. They are prescribed nortriptyline 10 mg hs.
The patient suffers from maintenance insomnia (non-chronic). At the time of consultation, they have normal affect with no depression, anxiety or substance overuse. They are prescribed nortriptyline 7.5 mg hs.
The patient suffers from maintenance insomnia (non-chronic) At the time of consultation, they have normal affect with no depression, anxiety or substance overuse. They are prescribed nortriptyline 5 mg hs.
The patient suffers from maintenance insomnia (non-chronic) At the time of consultation, they have normal affect with no depression, anxiety or substance overuse. They are prescribed nortriptyline 2 mg hs.

Structure (SMILES) | relief of insomnia at follow up ([1]; 2 mg hs) | relief of insomnia at follow up ([1]; 5 mg hs) | relief of insomnia at follow up ([1]; 7.5 mg hs) | relief of insomnia at follow up ([1]; 10 mg hs) | relief of onset insomnia at follow up (onset insomnia (chronic); 2 mg hs) | relief of onset insomnia at follow up (onset insomnia (chronic); 5 mg hs) | relief of onset insomnia at follow up (onset insomnia (chronic); 7.5 mg hs) | relief of onset insomnia at follow up (onset insomnia (chronic); 10 mg hs) | relief of insomnia at follow up ([2]; 2 mg hs) | relief of insomnia at follow up ([2]; 5 mg hs) | relief of insomnia at follow up ([2]; 7.5 mg hs) | relief of insomnia at follow up ([2]; 10 mg hs) | relief of onset insomnia at follow up ([3]; 2 mg hs) | relief of onset insomnia at follow up ([3]; 5 mg hs) | relief of onset insomnia at follow up ([3]; 7.5 mg hs) | relief of onset insomnia at follow up ([3]; 10 mg hs) | relief of insomnia at follow up ([4]; 2 mg hs) | relief of insomnia at follow up ([4]; 5 mg hs) | relief of insomnia at follow up ([4]; 7.5 mg hs) | relief of insomnia at follow up ([4]; 10 mg hs)
CN1CCN2c3ncccc3Cc3ccccc3C2C1 (stereo not shown) [mirtazapine, 1,2,3,4,10,14b-hexahydro-2-methylpyrazino [2,1-a]pyrido [2,3-c]benzazepine] | relieves the insomnia and has them sleeping well | relieves the insomnia and has them sleeping well | relieves the insomnia and has them sleeping well | relieves the insomnia and has their sleeping well | relieves the onset insomnia and has them sleeping well | relieves the onset insomnia and has them sleeping well | relieves the onset insomnia and has them sleeping well | relieves the onset insomnia and has their sleeping well | relieves the insomnia and has them sleeping well | relieves the insomnia and has them sleeping well | relieves the insomnia and has them sleeping well | relieves the insomnia and has their sleeping well | relieves the onset insomnia and has them sleeping well | relieves the onset insomnia and has them sleeping well | relieves the onset insomnia and has them sleeping well | relieves the onset insomnia and has their sleeping well | relieves the insomnia and has them sleeping well | relieves the insomnia and has them sleeping well | relieves the insomnia and has them sleeping well | relieves the insomnia and has their sleeping well
CNCCC=C1c2ccccc2CCc2ccccc21 [nortriptyline, 1 propanamine,3-(10,11-dihydro-5H-dibenzo[a,d]cyclohepten-5-ylidene)-N-methyl-, hydrochloride] | relieves the insomnia and has their sleeping well | relieves the insomnia and has them sleeping well | relieves the insomnia and has them sleeping well | relieves the insomnia and has their sleeping well | relieves the onset insomnia and has their sleeping well | relieves the onset insomnia and has them sleeping well | relieves the onset insomnia and has them sleeping well | relieves the onset insomnia and has their sleeping well | relieves the insomnia and has their sleeping well | relieves the insomnia and has them sleeping well | relieves the insomnia and has them sleeping well | relieves the insomnia and has their sleeping well | relieves the onset insomnia and has their sleeping well | relieves the onset insomnia and has them sleeping well | relieves the onset insomnia and has them sleeping well | relieves the onset insomnia and has their sleeping well | relieves the insomnia and has their sleeping well | relieves the insomnia and has them sleeping well | relieves the insomnia and has them sleeping well | relieves the insomnia and has their sleeping well
